In patent US10545133B2, “Molecular signatures of invasive cancer subpopulations” (The Johns Hopkins University, priority 2013, dated 2020):

Experiments:
Type in all cases: cell-based, mouse
[1] = tested on: MMTV-PyMT tumor organoids; assay: Mitosis (pH3) and K14 staining of tumor organoids treated with a mitosis inhibitor; conditions: aphidicolin 10 mM from day 0, 3D collagen matrix
Text: FIG. 4. Lumenal Tumor Cells Acquire Markers of Basal Differentiation (A) Mouse mammary tumor organoids grown in 3D collagen matrix stained with K8 and K14. (B) Bar graph of percentage of tumor organoids with K8 or K14 intensity equal to or greater than 1+ as a function of time. K14 and K8 intensity was quantified into 0 (no or few), 1 (intermediate), or 2 (bright) K14 signal. Data are presented as mean±SD. For K14: n=719 organoids from 5-8 mice per day; for K8: n=269 organoids from 3 mice per day. (C) Mammary tumor organoids grown in 3D collagen matrix stained with p63 and DAPI. (D) The percentage of organoids with nuclei positive for p63 was counted. Data are presented as mean±SD. n=114 organoids from 2 mice per day. (E) Invasion was quantified by scoring protrusive morphology of cancer cells in contact with the ECM. Data are presented as mean±SD. n=916 organoids from 4-7 mice per day. (F) Tumor organoids treated from day 0 with DMSO vehicle or a mitosis inhibitor (aphidicolin 10 mM) stained with K14, pH3, and DAPI. […] (H) K14 intensity scored in vehicle or aphidicolin. K14 intensity was quantified into 0 (no or few), 1 (intermediate), or 2 (bright) K14 signal. n=110 organoids from 2 mice per condition. […] All p values were determined by two-sided t test. *p<0.05. **p<0.01. ***p<0.001. […]

[2] = tested on: MMTV-PyMT tumor organoids; assay: Oxytocin contractility experiment
Text: FIG. 8. Leader Cells Are Molecularly Distinct from Normal Differentiated Myoepithelial Cells and Coexpress Lumenal Epithelial Markers, Related to FIG. 1 (A-C) Leader cells from MMTV-PyMT tumor organoids stained with K14 and K8 (A), K8, p63, and phalloidin (B), or E-cadherin (Ecad) and phalloidin (C). Arrow in (A), a K14+K8+ cell. Arrow in (B), a K8+p63+ cell. 75% of leaders were K14+K8+(n=21/28) and 34% of leaders were K8+p63+(n=22/65). Blue arrows in (C), Ecadherin staining at cell-cell contacts between leader and follower cells. […] Data presented as mean±sd. n=3 normal and tumor organoids. **p<0.01, *p<0.05; p values determined by two-sided t test. […] (G) The reduction in organoid area calculated in (F) provides a proxy for oxytocin-dependent contractility. Organoids were incubated in oxytocin at the specified doses, and the change in area was determined. […] N=23-30 organoids per condition from 3 independent experiments. *p<0.005, […]; p values determined by two-sided t test. […]
Normal mammary epithelial organoids and MMTV-PyMT tumor organoids were embedded in 3D collagen I matrix and cultured in FGF2 organoid media for 4 days. Normal and tumor organoids were then monitored by DIC time-lapse microscopy collecting images every 5 min. […]

K14+ cells = assay: Doxorubicin challenge of mammary carcinoma cells; conditions: challenge with doxorubicin

SMILES: C[C@@]1(CO)[C@H](O)CC[C@@]2(C)[C@H]1CC[C@H]1C[C@@H]3C[C@@]12CC[C@]3(O)CO [aphidicolin]
- increase in K14+ cells (K14 intensity) [1]: did not prevent an increase in K14+ cells
- mitosis (pH3+ nuclei per tumor organoid) [1]: blocked mitosis completely

SMILES: CC[C@H](C)[C@@H]1NC(=O)[C@H](Cc2ccc(O)cc2)NC(=O)[C@@H](N)CSSC[C@@H](C(=O)N2CCC[C@H]2C(=O)N[C@@H](CC(C)C)C(=O)NCC(N)=O)NC(=O)[C@H](CC(N)=O)NC(=O)[C@H](CCC(N)=O)NC1=O [oxytocin]
- time of maximal contraction postincubation ([2]; normal mammary and MMTV-PyMT tumor organoids, oxytocin at nM concentrations): 25 min
- contraction of leader cells in response to oxytocin ([2]; oxytocin 5 and 50 nM, 3D collagen I, day 4): did not contract

SMILES: COc1cccc2c1C(=O)c1c(O)c3c(c(O)c1C2=O)C[C@@](O)(C(=O)CO)C[C@@H]3O[C@H]1C[C@H](N)[C@H](O)[C@H](C)O1 [doxorubicin]
- representation of K14+ cells among the intrinsically resistant cells (K14+ cells): strongly overrepresented
